In PMC5713445, “Ergostane-Type Sterols from King Trumpet Mushroom (Pleurotus eryngii) and Their Inhibitory Effects on Aromatase” (International Journal of Molecular Sciences, 2017):

Biological target: T1, human recombinant aromatase (Homo sapiens, UniProt P11511)
T1 sequence (P11511 1-503): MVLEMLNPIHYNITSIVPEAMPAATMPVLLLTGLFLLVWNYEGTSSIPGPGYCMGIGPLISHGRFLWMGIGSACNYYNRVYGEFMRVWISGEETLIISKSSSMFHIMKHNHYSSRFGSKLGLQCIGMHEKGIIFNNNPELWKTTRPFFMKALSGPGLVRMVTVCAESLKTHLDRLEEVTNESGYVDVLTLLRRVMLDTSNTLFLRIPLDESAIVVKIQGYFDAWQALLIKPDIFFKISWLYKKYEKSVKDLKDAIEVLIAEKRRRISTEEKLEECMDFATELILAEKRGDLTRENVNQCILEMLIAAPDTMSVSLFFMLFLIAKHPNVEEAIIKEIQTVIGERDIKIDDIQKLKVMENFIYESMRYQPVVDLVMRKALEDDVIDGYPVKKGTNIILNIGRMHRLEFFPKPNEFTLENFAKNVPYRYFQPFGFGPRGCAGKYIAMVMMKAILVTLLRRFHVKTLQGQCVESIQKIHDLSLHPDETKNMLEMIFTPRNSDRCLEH
Experiment: Inhibitory assay against human recombinant aromatase (Human CYP19 + P450 Reductase SUPERSOMES, dibenzylfluorescein)
Type: biochemical
Conditions: for aromatase inhibitory activity (in words): tested at 10, 30 and 100 µM (4, 6: 1, 3 and 10 µM); for IC50: three determinations
Excerpt: Each value represents the mean ± the standard error (S.E.) of three determinations.
Dibenzylfluorescein (DBF) and Human CYP19 + P450 Reductase SUPERSOMES (human recombinant aromatase) were obtained from BD Biosciences (Heidelberg, Germany). The physical data were obtained by the following instruments: a Yanagimoto micro-melting point apparatus for melting points (uncorrected); a JASCO DIP-1000 digital polarimeter for Optical rotations; a Perkin-Elmer 1720X FTIR spectrophotometer for IR spectra; an Agilent-NMR-vnmrs600 for the ^1H and ^13C NMR spectra (^1H: 600 MHz; ^13C: 150 MHz) in CDCl3 with tetramethylsilane as the internal standard; a Hitachi M-4000H double-focusing mass spectrometer for EIMS (70 eV). Column chromatography was carried out by Silica gel (70–230 mesh, Merck, Darmstadt, Germany) and silica gel 60 (230–400 mesh, Nacalai Tesque, Inc., Kyoto, Japan). HPLC was performed by the following systems; system I: Cosmosil 5SL-II column (25 cm × 20 mm i.d.) (Nacalai Tesque, Inc.), hexane/EtOAc (5:1), 8.0 mL/min, 35 °C; system II: Shimpack PREP-ODS (25 cm × 20 mm i.d.) (Shimadzu corp., Kyoto, Japan), MeOH, 8.0 mL/min, 35 °C; system III: Cosmosil 5C18-MS-II column (25 cm × 20 mm i.d.) (Nacalai Tesque, Inc.), MeOH/H2O (95:5), flow rate, 4.0 mL/min, 35 °C; system IV: Cosmosil 5C18-MS-II column, MeOH/H2O (9:1), 4.0 mL/min, 35 °C.
Inhibitory assay against human recombinant aromatase was performed as described previously.

Compound | aromatase inhibitory activity (in words) | IC50
CO[C@@H]1C=C2[C@@H]3CC[C@H]([C@H](C)/C=C/[C@H](C)C(C)C)[C@@]3(C)CC[C@@H]2[C@@]2(C)CC[C@H](O)C[C@]12O [Compound 6, (22E)-6β-methoxyergosta-7,22-diene-3β,5α-diol] | comparable aromatase inhibitory activities to aminoglutethimide | 2.8 µM
CC(C)[C@@H](C)/C=C/[C@@H](C)[C@H]1CC=C2C3=C(CC[C@@]21C)[C@@]1(C)CC[C@H](O)C[C@@]12O[C@H]2[C@@H]3O [Compound 1, (22E)-5α,6α-epoxyergosta-8,14,22-triene-3β,7β-diol] | – | 17.3 µM
CC(C)[C@@H](C)/C=C/[C@@H](C)[C@H]1CC[C@H]2C3=CC(=O)[C@@]4(O)C[C@@H](O)CC[C@]4(C)[C@H]3CC[C@]12C [Compound 8, (22E)-3β,5α-dihydroxyergosta-7,22-dien-6-one] | weakly inhibited aromatase | > 100 µM
CC(C)[C@@H](C)/C=C/[C@@H](C)[C@H]1CC[C@@H]2[C@]1(C)CC=C1[C@]23C=C[C@]2(C[C@@H](O)CC[C@]12C)OO3 [Compound 10, 9,11-dehydroergosterol peroxide] | – | 32.6 µM
CC(C)[C@@H](C)/C=C/[C@@H](C)[C@H]1CC[C@H]2C3=CCC4C[C@@H](O)CC[C@]4(C)[C@H]3CC[C@]12C (stereo partly drawn) [Compound 3, (22E)-Ergosta-7,22-dien-3β-ol] | – | 66.1 µM
CC(C)[C@@H](C)/C=C/[C@@H](C)[C@H]1CC[C@H]2C3=CC=C4C[C@@H](O)CC[C@]4(C)[C@H]3CC[C@]12C [Compound 4, (22E)-ergosta-5,7,22-trien-3β-ol] | comparable aromatase inhibitory activities to aminoglutethimide | 8.1 µM
CC(C)[C@@H](C)/C=C/[C@@H](C)[C@H]1CC[C@H]2C3=CC(=O)[C@@]4(O)C[C@@H](O)CC[C@]4(C)[C@@]3(O)CC[C@]12C [Compound 7, (22E)-3β,5α,9α-trihydroxyergosta-7,22-dien-6-one] | weakly inhibited aromatase | > 100 µM
CC(C)[C@@H](C)/C=C/[C@@H](C)[C@H]1CC[C@H]2c3ccc4c(c3CC[C@]12C)CC[C@H](O)C4 [Compound 5, (22E)-19-norergosta-5,7,9,22-tetraen-3β-ol] | – | 33.8 µM
5α,6α-epoxyergost-8(14)-ene-3β,7α-diol [Compound 2] | weakly inhibited aromatase | –
CC(C)[C@@H](C)/C=C/[C@@H](C)[C@H]1CC[C@@H]2[C@]1(C)CC[C@H]1[C@]23C=C[C@]2(C[C@@H](O)CC[C@]12C)OO3 [Compound 9, ergosterol peroxide] | weakly inhibited aromatase | > 100 µM
